Experimental data from ChEMBL document CHEMBL1124431, “Preparation and antitumor activity of additional mitomycin A analogues” (J Med Chem, 1989).

What was measured:
[1] = Partition coefficient (logP); assay type: physicochemical; conditions: octanol/water
Mus musculus = species on record: Mus musculus; assay: log(1/C) was estimated in mice; assay type: organism-based; conditions: in vivo
P388 [2] = assay: Minimum effective dose was determined on P388 leukemia cells in mice; assay type: functional, Mus musculus; conditions: for minimal effective dose: Mus musculus, P388, read-out: MED
P388 [3] = assay: Maximal effect of the given optimal dose of 12.8 mg/kg against P388 leukemia cells in mice; assay type: functional, Mus musculus
P388 [4] = assay: Maximal effect of the given optimal dose of 3.2 mg/kg against P388 leukemia cells in mice; assay type: functional, Mus musculus
B16 [5] = assay: Minimum effective dose was determined on B16 melanoma cells in mice; assay type: functional; conditions: Mus musculus, read-out: MED
B16 [6] = assay: Maximal effect of the given optimal dose of 0.8 mg/kg against B16 melanoma in mice; assay type: functional, Mus musculus
P388 [7] = assay: Maximal effect of the given optimal dose of 0.8 mg/kg against P388 leukemia cells in mice; assay type: functional, Mus musculus
P388 [8] = assay: Maximal effect of the given optimal dose of 6.4 mg/kg against P388 leukemia cells in mice; assay type: functional, Mus musculus
B16 [9] = assay: Maximal effect of the given optimal dose of 0.8 mg/kg against B16 melanoma cells in mice; assay type: functional, Mus musculus
B16 [10] = assay: Maximal effect of the given optimal dose of 0.4 mg/kg against B16 melanoma cells in mice; assay type: organism-based; design: dose 0.4 mg/kg; conditions: mouse, in vivo
B16 [11] = assay: Maximal effect of the given optimal dose of 1.6 mg/kg against B16 melanoma in mice; assay type: functional, Mus musculus
P388 [12] = assay: Maximal effect of the given optimal dose of 1.6 mg/kg against P388 leukemia cells in mice; assay type: functional, Mus musculus
B16 [13] = assay: Maximal effect of the given optimal dose of 0.3 mg/kg against B16 melanoma in mice; assay type: functional, Mus musculus
P388 [14] = assay: Maximal effect of the given optimal dose of 0.2 mg/kg against P388 leukemia cells in mice; assay type: functional, Mus musculus
P388 [15] = assay: Maximal effect of the given optimal dose of 0.4 mg/kg against P388 leukemia cells in mice; assay type: functional, Mus musculus
B16 [16] = assay: Maximal effect of the given optimal dose of 0.4 mg/kg against B16 melanoma in mice; assay type: functional, Mus musculus
B16 [17] = assay: Maximal effect of the given optimal dose of 1.2 mg/kg against B16 melanoma in mice; assay type: functional, Mus musculus

Row | SMILES | logP [1] | Log 1/C (Mus musculus) | MED (P388 [2]) [M/kg] | minimal effective dose (P388 [2]) [mg/kg] | other results
1 | CCN1CCCC1CCOC1=C(C)C(=O)C2=C(C1=O)C(COC(N)=O)[C@@]1(OC)C3NC3CN21 (some centres not stated) | 1.96 | 6.96 | 1.09e-07 | < 0.1 | T/C (P388 [3]): 211%
2 | CO[C@@]12C(COC(N)=O)C3=C(C(=O)C(C)=C(OCc4cccs4)C3=O)N1CC1NC12 (some centres not stated) | 2.07 | 5.15 | 7.13e-06 | 3.2 | T/C (P388 [4]): 159%
3 | COCC(O)COC1=C(C)C(=O)C2=C(C1=O)C(COC(N)=O)[C@@]1(OC)C3NC3CN21 (some centres not stated) | -0.59 | 6.94 | 1.16e-07 | < 0.1 | minimal effective dose (B16 [5]): 0.2 mg/kg; T/C (B16 [6]): 211%; T/C (P388 [7]): 222%
4 | CO[C@@]12C(COC(N)=O)C3=C(C(=O)C(C)=C(OCCCSCCCO)C3=O)N1CC1NC12 (some centres not stated) | 3.49 | 6.98 | 1.02e-07 | < 0.1 | T/C (P388 [8]): 153%
5 | CCSCC(O)COC1=C(C)C(=O)C2=C(C1=O)C(COC(N)=O)[C@@]1(OC)C3NC3CN21 (some centres not stated) | 1.25 | 6.37 | 4.33e-07 | 0.2 | T/C (P388 [4]): >322%
6 | CO[C@@]12C(COC(N)=O)C3=C(C(=O)C(C)=C(OCCOCCCl)C3=O)N1CC1NC12 (some centres not stated) | 1.18 | 7.21 | 6.2e-08 | < 0.05 | minimal effective dose (B16 [5]): 0.4 mg/kg; T/C (B16 [9]): 169%; T/C (P388 [4]): 183%
7 | CO[C@@]12C(COC(N)=O)C3=C(C(=O)C(C)=C(OCCN4CCCC4)C3=O)N1CC1NC12 (some centres not stated) | 1.46 | 6.94 | 1.13e-07 | < 0.1 | T/C (B16 [10]): 107%; T/C (P388 [8]): 217%
8 | CCO[Si](CCCOC1=C(C)C(=O)C2=C(C1=O)C(COC(N)=O)[C@@]1(OC)C3NC3CN21)(OCC)OCC (some centres not stated) | – | 6.44 | 3.59e-07 | 0.2 | T/C (P388 [3]): 167%
9 | CO[C@@]12C(COC(N)=O)C3=C(C(=O)C(C)=C(OCCSCc4ccccc4)C3=O)N1CC1NC12 (some centres not stated) | 3.58 | 6.37 | 4.25e-07 | 0.2 | T/C (P388 [8]): 156%
10 | CO[C@@]12C(COC(N)=O)C3=C(C(=O)C(C)=C(OC4CCOCC4)C3=O)N1CC1NC12 (some centres not stated) | 1.29 | 6.93 | 1.17e-07 | < 0.1 | T/C (B16 [11]): 135%; minimal effective dose (B16 [5]): 1.6 mg/kg; T/C (P388 [4]): 212%
11 | CO[C@@]12C(COC(N)=O)C3=C(C(=O)C(C)=C(OCCOc4ccccc4)C3=O)N1CC1NC12 (some centres not stated) | 2.39 | 5.45 | 3.516e-06 | 1.6 | T/C (P388 [4]): 130%
12 | CO[C@@]12C(COC(N)=O)C3=C(C(=O)C(C)=C(OCC4CC4)C3=O)N1CC1NC12 (some centres not stated) | 1.67 | 5.97 | 1.028e-06 | 0.4 | T/C (P388 [12]): 144%
13 | CCOC(=O)CCCOC1=C(C)C(=O)C2=C(C1=O)C(COC(N)=O)[C@@]1(OC)C3NC3CN21 (some centres not stated) | 1.49 | 4.85 | 1.41e-05 | 6.4 | T/C (P388 [3]): 171%
14 | CO[C@@]12C(COC(N)=O)C3=C(C(=O)C(C)=C(OCCC4CCCN4C)C3=O)N1CC1NC12 (some centres not stated) | 1.46 | 5.21 | 7.033e-06 | 3.2 | T/C (P388 [3]): >156%
15 | CO[C@@]12C(COC(N)=O)C3=C(C(=O)C(C)=C(OCCCN4CCN(C)CC4)C3=O)N1CC1NC12 (some centres not stated) | 1.16 | 4.9 | 1.265e-05 | 6.4 | T/C (P388 [3]): >167%
16 | CO[C@@]12C(COC(N)=O)C3=C(C(=O)C(C)=C(OC4CC4)C3=O)N1CC1NC12 (some centres not stated) | 1.17 | 6.89 | 1.3e-07 | 0.05 | minimal effective dose (B16 [5]): 0.8 mg/kg; T/C (B16 [9]): 138%; T/C (P388 [4]): 172%
17 | CO[C@@]12C(COC(N)=O)C3=C(C(=O)C(C)=C(OCCSCCSCCO)C3=O)N1CC1NC12 (some centres not stated) | 1.86 | 5.84 | 1.603e-06 | 0.8 | T/C (P388 [7]): 140%

Row | SMILES | logP [1] | Log 1/C (Mus musculus) | MED (P388 [2]) [M/kg] | minimal effective dose (P388 [2]) [mg/kg] | other results
18 | CO[C@@]12C(COC(N)=O)C3=C(C(=O)C(C)=C(OC4CCN(C)CC4)C3=O)N1CC1NC12 (some centres not stated) | 1.46 | 5.15 | 7.1e-06 | 3.2 | T/C (P388 [4]): 155%
19 | CO[C@@]12C(COC(N)=O)C3=C(C(=O)C(C)=C(OCCSC)C3=O)N1CC1NC12 (some centres not stated) | 1.37 | 6.02 | 9.57e-07 | 0.4 | T/C (P388 [12]): 165%
20 | CO[C@@]12C(COC(N)=O)C3=C(C(=O)C(C)=C(OCCN4CCSCC4)C3=O)N1CC1NC12 (some centres not stated) | 2.07 | 6.67 | 2.06e-07 | 0.1 | T/C (P388 [8]): >172%
21 | COCC(C)OC1=C(C)C(=O)C2=C(C1=O)C(COC(N)=O)[C@@]1(OC)C3NC3CN21 (some centres not stated) | 0.79 | 6.21 | 4.81e-07 | 0.2 | T/C (P388 [7]): 206%
22 | CO[C@@]12C(COC(N)=O)C3=C(C(=O)C(C)=C(OCc4ccccn4)C3=O)N1CC1NC12 (some centres not stated) | 0.91 | 6.04 | 9.2e-07 | 0.4 | T/C (P388 [7]): 164%
23 | CO[C@@]12C(COC(N)=O)C3=C(C(=O)C(C)=C(OC/C=C/CO)C3=O)N1CC1NC12 (some centres not stated) | 0.46 | 6.21 | 4.83e-07 | 0.2 | T/C (P388 [4]): 150%
24 | CO[C@@]12C(COC(N)=O)C3=C(C(=O)C(C)=C(OCCNC(C)=O)C3=O)N1CC1NC12 (some centres not stated) | -0.21 | 6.03 | 9.32e-07 | 0.4 | T/C (P388 [3]): 150%
25 | CO[C@@]12C(COC(N)=O)C3=C(C(=O)C(C)=C(OCCSc4ccccc4)C3=O)N1CC1NC12 (some centres not stated) | 3.12 | 5.17 | 6.73e-06 | 3.2 | T/C (P388 [3]): 130%
26 | COC1=C(C)C(=O)C2=C(C1=O)[C@@H](COC(N)=O)[C@@]1(OC)[C@H]3N[C@H]3CN21 [MITOMYCIN A] | – | 6.84 | 1.43e-07 | 0.05 | minimal effective dose (B16 [5]): 0.05 mg/kg; T/C (B16 [13]): 177%; T/C (P388 [4]): 180%
27 | CO[C@@]12C(COC(N)=O)C3=C(C(=O)C(C)=C(OCCN4CCCCC4)C3=O)N1CC1NC12 (some centres not stated) | 1.96 | 6.06 | 8.71e-07 | 0.4 | T/C (P388 [3]): 191%
28 | CCOCCOC1=C(C)C(=O)C2=C(C1=O)C(COC(N)=O)[C@@]1(OC)C3NC3CN21 (some centres not stated) | 0.79 | 7.33 | 4.65e-07 | 0.2 | T/C (P388 [12]): 133%
29 | CO[C@@]12C(COC(N)=O)C3=C(C(=O)C(C)=C(OCCCN(CCO)CCO)C3=O)N1CC1NC12 (some centres not stated) | -0.28 | – | – | – | T/C (P388 [14]): 106%
30 | CO[C@@]12C(COC(N)=O)C3=C(C(=O)C(C)=C(OCC4COCO4)C3=O)N1CC1NC12 (some centres not stated) | 0.31 | 6.32 | 4.75e-07 | 0.2 | T/C (P388 [15]): 140%
31 | CO[C@@]12C(COC(N)=O)C3=C(C(=O)C(C)=C(OCCC4OCCCO4)C3=O)N1CC1NC12 (some centres not stated) | 0.82 | – | – | – | minimal effective dose (B16 [5]): < 0.3 mg/kg; T/C (B16 [16]): 154%; T/C (P388 [14]): 117%
32 | CO[C@@]12C(COC(N)=O)C3=C(C(=O)C(C)=C(OCC4OCCO4)C3=O)N1CC1NC12 (some centres not stated) | -0.18 | 7.23 | 5.88e-07 | < 0.05 | T/C (P388 [15]): 267%
33 | CO[C@@]12C(COC(N)=O)C3=C(C(=O)C(C)=C(OC4COCOC4)C3=O)N1CC1NC12 (some centres not stated) | 0.31 | 6.93 | 1.18e-07 | < 0.1 | T/C (B16 [17]): 222%; minimal effective dose (B16 [5]): < 0.3 mg/kg; T/C (P388 [12]): 210%
